According to ChEMBL document CHEMBL5465560, “Selectivity Literature for EUbOPEN Chemogenomic Library” (2024):

Experiments:
[1] = target: Epithelial discoidin domain-containing receptor 1 (Homo sapiens) (UniProt Q08345); test: Selectivity interaction (KinomeScan (DiscoverX)) EUB0000229b DDR1; details: at 10 µM
[2] = target: Tyrosine-protein kinase Fer (Homo sapiens) (UniProt P16591); test: Selectivity interaction (KinomeScan (DiscoverX)) EUB0000229b FER; details: at 10 µM
[3] = target: T1, Histone-arginine methyltransferase CARM1 (Homo sapiens) (UniProt Q86X55); details: KMS-12-PE, at 3 µM
T1 sequence (whole entry): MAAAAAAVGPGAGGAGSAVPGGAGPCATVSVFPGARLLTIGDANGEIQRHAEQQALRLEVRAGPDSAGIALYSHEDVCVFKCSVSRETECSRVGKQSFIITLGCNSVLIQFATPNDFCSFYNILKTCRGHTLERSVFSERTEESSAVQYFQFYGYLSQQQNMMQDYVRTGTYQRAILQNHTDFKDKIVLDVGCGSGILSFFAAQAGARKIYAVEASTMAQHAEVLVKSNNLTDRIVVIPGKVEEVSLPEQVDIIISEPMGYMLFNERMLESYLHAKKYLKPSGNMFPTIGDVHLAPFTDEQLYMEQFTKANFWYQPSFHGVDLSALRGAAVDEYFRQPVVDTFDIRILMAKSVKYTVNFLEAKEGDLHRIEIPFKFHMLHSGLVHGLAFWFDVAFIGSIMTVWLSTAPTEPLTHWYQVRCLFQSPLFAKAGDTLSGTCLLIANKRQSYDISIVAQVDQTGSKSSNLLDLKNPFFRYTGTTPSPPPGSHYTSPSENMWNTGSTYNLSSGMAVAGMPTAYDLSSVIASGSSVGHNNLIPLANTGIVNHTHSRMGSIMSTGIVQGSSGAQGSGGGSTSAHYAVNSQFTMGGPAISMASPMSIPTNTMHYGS

[4] = target: MAP kinase-activated protein kinase 2 (Homo sapiens, UniProt P49137); test: Selectivity interaction (KinomeScan (DiscoverX)) EUB0000045b MAPKAPK2
MAP kinase-activated protein kinase 2, sequence (P49137 whole entry, looked up): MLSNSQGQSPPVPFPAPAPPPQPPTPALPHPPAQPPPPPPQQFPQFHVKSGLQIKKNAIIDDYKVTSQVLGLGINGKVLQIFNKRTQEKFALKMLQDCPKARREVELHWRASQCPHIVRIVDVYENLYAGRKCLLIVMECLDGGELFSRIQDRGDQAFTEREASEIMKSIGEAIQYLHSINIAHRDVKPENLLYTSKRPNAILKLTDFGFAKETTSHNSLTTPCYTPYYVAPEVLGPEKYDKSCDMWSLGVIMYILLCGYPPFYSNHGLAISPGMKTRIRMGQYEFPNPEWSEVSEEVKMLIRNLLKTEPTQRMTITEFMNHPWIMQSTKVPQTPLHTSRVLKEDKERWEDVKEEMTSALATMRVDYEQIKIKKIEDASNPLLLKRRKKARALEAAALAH

[5] = target: Serine/threonine-protein kinase SIK2 (Homo sapiens) (UniProt Q9H0K1); test: Selectivity interaction (Kinase panel (Z-LYTE Assay)) EUB0001632a SIK2; details: at 10 µM
Serine/threonine-protein kinase SIK2 (Homo sapiens), sequence (Q9H0K1 whole entry, looked up): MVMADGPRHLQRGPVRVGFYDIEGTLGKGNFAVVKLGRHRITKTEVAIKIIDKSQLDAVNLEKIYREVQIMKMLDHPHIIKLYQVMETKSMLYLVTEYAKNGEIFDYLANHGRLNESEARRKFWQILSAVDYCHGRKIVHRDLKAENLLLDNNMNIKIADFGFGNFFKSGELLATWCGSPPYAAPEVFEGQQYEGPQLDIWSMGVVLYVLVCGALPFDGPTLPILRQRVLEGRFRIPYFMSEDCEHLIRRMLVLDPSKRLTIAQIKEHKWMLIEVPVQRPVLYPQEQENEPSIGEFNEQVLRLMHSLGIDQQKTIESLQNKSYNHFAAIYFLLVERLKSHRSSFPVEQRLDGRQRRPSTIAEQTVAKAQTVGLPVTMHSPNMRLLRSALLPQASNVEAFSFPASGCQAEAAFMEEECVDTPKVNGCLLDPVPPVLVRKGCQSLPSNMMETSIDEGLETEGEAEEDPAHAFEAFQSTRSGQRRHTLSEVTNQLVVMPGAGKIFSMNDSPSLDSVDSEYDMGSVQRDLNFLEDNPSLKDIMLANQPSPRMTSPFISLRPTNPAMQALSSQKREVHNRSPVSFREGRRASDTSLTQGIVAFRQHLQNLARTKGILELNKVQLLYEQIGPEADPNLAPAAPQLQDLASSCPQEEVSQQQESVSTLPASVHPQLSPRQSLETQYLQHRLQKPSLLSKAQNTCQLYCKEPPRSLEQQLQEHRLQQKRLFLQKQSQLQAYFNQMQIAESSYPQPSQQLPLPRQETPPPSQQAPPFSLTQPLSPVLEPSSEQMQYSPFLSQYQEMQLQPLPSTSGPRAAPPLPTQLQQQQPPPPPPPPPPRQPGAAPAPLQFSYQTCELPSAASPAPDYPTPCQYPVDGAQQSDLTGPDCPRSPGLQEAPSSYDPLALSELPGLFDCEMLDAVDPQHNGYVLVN

[6] = target: Bone morphogenetic protein receptor type-1A (Homo sapiens, UniProt P36894); test: Selectivity interaction (KinomeScan (DiscoverX)) EUB0001049a BMPR1A; details: at 1 µM
Bone morphogenetic protein receptor type-1A, sequence (P36894 whole entry): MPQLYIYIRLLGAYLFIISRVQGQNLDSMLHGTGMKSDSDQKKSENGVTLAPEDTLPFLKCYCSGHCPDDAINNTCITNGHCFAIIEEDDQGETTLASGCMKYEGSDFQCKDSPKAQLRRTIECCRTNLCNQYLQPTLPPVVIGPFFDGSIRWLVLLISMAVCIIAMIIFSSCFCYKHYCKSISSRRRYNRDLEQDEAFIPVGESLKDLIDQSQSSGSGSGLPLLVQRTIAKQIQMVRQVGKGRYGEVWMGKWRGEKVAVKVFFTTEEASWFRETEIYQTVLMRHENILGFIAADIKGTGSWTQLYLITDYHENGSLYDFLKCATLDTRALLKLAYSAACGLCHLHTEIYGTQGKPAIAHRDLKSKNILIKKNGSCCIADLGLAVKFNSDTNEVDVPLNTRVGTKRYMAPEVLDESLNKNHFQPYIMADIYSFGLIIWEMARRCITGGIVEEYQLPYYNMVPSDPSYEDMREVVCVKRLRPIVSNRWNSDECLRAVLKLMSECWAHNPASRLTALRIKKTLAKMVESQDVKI

[7] = target: SRSF protein kinase 3 (Homo sapiens) (UniProt Q9UPE1); test: Selectivity interaction (ProQinase) EUB0000171b SRPK3
SRSF protein kinase 3 (Homo sapiens), sequence (Q9UPE1 whole entry): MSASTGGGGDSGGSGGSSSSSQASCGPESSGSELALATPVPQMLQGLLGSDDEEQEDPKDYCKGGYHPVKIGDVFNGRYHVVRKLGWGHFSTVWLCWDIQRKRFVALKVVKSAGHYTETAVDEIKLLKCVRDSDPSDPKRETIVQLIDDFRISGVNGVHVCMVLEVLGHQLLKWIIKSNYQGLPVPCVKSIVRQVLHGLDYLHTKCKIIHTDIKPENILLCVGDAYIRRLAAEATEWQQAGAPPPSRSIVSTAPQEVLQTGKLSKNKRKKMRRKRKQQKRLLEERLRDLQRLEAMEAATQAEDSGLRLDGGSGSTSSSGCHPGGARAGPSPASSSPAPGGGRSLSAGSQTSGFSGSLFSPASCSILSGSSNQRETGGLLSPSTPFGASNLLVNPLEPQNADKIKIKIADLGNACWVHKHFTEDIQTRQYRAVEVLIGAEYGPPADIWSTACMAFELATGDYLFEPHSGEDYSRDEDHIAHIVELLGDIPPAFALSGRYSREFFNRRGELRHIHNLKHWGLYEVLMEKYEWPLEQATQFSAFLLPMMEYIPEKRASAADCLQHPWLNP

[8] = target: T2, Phosphatidylinositol 5-phosphate 4-kinase type-2 alpha (Homo sapiens) (UniProt P48426); test: Selectivity interaction (ActivX KiNativ screen (ex vivo kinase selectivity in human PBMCs)) EUB0001619a PIP4K2A; type: cell-based; details: PBMC, at 1 µM
T2 sequence (whole entry): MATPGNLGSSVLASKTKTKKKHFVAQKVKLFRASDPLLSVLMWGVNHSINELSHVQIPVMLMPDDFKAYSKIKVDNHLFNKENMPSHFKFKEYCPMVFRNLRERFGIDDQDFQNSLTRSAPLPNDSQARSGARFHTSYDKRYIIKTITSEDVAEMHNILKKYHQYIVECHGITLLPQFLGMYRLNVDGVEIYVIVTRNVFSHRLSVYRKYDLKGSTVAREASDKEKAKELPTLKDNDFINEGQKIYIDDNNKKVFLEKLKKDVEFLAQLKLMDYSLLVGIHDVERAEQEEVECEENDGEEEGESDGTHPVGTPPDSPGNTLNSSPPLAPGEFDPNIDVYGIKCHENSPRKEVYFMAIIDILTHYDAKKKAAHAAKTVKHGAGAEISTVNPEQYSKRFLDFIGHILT

[9] = target: Phosphatidylinositol 4-phosphate 5-kinase type-1 gamma (Homo sapiens) (UniProt O60331); test: Selectivity interaction (KinomeScan (DiscoverX)) EUB0001619a PIP5K1C; details: at 1 µM
Phosphatidylinositol 4-phosphate 5-kinase type-1 gamma (Homo sapiens), sequence (O60331 whole entry): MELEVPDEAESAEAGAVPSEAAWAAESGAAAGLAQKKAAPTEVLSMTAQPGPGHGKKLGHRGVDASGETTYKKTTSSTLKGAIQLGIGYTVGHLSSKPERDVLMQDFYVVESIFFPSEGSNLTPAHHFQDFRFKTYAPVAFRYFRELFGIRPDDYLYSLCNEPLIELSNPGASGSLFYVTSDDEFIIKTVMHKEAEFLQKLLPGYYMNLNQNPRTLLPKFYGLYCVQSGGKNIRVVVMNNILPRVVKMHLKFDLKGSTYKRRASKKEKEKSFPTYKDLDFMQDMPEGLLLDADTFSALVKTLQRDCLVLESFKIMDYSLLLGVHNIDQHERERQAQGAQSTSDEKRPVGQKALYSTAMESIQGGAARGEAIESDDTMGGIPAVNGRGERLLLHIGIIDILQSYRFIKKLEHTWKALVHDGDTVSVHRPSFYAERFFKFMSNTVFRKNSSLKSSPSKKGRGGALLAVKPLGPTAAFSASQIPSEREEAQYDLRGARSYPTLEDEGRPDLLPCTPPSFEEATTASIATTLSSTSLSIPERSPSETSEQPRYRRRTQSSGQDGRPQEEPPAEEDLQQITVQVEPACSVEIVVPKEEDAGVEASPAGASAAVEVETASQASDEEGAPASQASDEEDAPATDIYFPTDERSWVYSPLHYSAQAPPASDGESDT

[10] = target: T3, Serine/threonine-protein kinase LATS2 (Homo sapiens) (UniProt Q9NRM7); test: Selectivity interaction (KinomeScan (DiscoverX)) EUB0000092b LATS2; details: at 10 µM
T3 sequence (whole entry): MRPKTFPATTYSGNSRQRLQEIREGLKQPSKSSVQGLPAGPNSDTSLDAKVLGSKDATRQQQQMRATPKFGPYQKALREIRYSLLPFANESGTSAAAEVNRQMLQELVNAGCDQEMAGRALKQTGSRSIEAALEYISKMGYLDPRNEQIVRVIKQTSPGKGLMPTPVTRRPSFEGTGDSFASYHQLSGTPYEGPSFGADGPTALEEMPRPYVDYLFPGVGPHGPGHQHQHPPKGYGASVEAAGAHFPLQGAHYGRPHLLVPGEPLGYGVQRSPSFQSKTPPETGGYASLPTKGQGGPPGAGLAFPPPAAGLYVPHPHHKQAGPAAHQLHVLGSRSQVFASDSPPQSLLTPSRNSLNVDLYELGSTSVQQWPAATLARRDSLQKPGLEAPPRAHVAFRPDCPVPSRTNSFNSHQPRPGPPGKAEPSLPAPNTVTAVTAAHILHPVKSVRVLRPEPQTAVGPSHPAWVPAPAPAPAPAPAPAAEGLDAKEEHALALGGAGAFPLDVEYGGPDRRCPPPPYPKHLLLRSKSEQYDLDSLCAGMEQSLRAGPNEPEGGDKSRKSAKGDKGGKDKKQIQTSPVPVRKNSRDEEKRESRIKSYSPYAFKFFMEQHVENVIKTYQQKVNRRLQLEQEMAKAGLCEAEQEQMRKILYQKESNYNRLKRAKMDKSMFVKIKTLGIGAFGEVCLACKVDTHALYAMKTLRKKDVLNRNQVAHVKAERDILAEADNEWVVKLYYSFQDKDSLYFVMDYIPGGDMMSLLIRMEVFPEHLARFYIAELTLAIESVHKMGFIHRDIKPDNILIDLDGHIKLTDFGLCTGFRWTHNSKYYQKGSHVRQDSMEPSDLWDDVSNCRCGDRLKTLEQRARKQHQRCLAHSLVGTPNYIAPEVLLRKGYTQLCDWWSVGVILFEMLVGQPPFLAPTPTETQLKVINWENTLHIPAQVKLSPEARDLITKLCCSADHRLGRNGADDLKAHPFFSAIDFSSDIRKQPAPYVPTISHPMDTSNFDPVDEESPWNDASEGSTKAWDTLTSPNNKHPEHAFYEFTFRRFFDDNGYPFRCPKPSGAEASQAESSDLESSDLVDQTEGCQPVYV

Tyrosine-protein kinase Fer (Homo sapiens), sequence (P16591 whole entry, looked up): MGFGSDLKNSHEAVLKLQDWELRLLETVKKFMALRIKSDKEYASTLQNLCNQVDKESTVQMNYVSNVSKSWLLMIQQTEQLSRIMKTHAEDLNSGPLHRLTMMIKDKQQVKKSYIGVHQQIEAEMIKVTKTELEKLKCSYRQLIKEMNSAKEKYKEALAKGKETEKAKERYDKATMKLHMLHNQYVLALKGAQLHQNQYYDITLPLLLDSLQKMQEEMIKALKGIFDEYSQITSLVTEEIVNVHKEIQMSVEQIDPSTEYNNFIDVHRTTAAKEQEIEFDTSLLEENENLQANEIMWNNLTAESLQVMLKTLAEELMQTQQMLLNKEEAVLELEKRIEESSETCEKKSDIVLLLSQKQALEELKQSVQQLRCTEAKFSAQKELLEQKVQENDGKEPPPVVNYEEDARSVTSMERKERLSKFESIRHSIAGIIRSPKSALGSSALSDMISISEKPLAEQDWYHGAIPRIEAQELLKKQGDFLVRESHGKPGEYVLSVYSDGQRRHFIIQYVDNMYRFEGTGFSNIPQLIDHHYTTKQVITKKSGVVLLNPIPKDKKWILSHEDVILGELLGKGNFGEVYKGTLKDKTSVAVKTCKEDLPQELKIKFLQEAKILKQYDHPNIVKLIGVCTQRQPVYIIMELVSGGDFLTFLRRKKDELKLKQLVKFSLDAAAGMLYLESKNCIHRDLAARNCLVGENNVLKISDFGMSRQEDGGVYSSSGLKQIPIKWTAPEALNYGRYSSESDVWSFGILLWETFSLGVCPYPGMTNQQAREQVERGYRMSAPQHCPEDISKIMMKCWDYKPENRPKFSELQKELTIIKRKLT
Epithelial discoidin domain-containing receptor 1 (Homo sapiens), sequence (Q08345 whole entry, the tested form may be a part): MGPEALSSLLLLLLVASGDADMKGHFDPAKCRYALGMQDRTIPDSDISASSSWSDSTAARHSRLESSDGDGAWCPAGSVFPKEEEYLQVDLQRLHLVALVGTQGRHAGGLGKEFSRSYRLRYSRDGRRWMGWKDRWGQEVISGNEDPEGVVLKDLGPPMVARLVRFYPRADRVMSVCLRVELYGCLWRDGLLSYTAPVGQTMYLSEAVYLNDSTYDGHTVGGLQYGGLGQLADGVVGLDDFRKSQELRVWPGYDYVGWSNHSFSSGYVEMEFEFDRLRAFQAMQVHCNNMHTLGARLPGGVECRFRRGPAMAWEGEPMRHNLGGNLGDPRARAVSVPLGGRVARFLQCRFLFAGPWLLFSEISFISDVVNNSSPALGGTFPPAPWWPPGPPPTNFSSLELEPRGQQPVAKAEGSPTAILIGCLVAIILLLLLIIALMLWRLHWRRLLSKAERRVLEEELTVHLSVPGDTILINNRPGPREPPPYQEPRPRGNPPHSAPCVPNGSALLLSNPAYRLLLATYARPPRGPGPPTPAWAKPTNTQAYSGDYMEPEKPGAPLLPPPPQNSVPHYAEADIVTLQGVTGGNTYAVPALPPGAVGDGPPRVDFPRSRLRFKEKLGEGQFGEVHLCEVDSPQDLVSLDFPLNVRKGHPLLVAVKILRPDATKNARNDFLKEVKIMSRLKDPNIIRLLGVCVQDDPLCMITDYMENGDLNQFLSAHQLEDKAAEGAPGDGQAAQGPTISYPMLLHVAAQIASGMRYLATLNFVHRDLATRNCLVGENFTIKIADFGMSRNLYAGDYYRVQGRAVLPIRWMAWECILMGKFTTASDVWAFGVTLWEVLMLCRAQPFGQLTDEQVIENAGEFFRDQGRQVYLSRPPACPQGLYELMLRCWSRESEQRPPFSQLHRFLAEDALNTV

COc1cc(N(C)c2ccnc3ccc(C(F)(F)F)cc23)cc(OC)c1OC
% binding [1]: 78%
% binding [2]: 95%

CNCCN1CCC(c2cc(CN(C)C(=O)c3cccc(Oc4ccccc4)c3)ccn2)CC1
% of growth rate [3]: -4.4%

C=CC(=O)Nc1cc(-n2c(=O)ccc3cnc4ccc(-c5ccc(NS(C)(=O)=O)cc5)cc4c32)ccc1C
% of control ([4]; at 1 µM): 100%
% of control ([4]; at 10 µM): 100%

Cn1cc(-n2cnc3c(NCc4nc5cc(Cl)c(Cl)cc5[nH]4)nc(N4CCOCC4)nc32)cn1
% of control [5]: 5.35%

COc1cc(Nc2nc(C)cc(-c3cnn4nc(OC)ccc34)n2)cc(C(F)(F)F)c1
% of control [6]: 100%

C=CC(=O)Nc1cccc(C(=O)Nc2ccc(Nc3cc(-c4[nH]c(SC)nc4C)ccn3)cc2)c1
% of control ([7]; at 1 µM): 97%
% of control ([7]; at 5 µM): 101%

N#Cc1cccc(-c2c[nH]c3ncnc(N4CCOCC4)c23)c1
% of inhibition [8]: 15%
% of control [9]: 70%

CCC(=O)N1CCN(c2ccc(-n3c(=O)ccc4cnc5ccc(-c6cnc7ccccc7c6)cc5c43)cc2C(F)(F)F)CC1
% of control [10]: 100%
